Where a name gives a salt, the structure may show the parent alone.
Experiments:
[1] = system: plasma triglyceride (TAG) secretion from the intestine; assay: Dog Oil Bolus Model (plasma triglyceride after olive oil bolus); type: in vivo, dog (male beagles); conditions: olive oil bolus 5 ml/kg; for reduction of 18:1 TAG (plasma TAG 18:1 18:1 18:1 net AUC): 18:1 TAG by LC/MS/MS
Source text: Inhibiting MOGAT-2 found in the small intestine may be useful for treating hypertriglyceridemia caused by excessive fat intake Inhibition of MOGAT-2 disrupts resynthesis of triglycerides, which reduces secretion of triglycerides from the intestine. Therefore, MOGAT-2 inhibition interferes with a specific process that leads to eventual secretion of triglycerides into the intestine for eventual circulation through the body. To assess the ability of one or more of the exemplified compounds to inhibit MOGAT-2 induced TAG secretion into the intestine as measured in the blood system, the following protocol can be followed.
Twenty one male beagles (n=7 per treatment group) are enrolled for each study, each dog selected to have a body weight between 9-13 kg. House the dogs in cages with a standard light cycle (12 hours light and 12 hours dark); at room temperature: 72±8° F.; and at 30%-70% relative humidity. Fast the dogs for 16 hours prior to the start of the study, then dose the fasted dogs with vehicle (1% HEC, 0.25%, Tween 80, Antifoam) or one of the test compounds in that vehicle. Bleed the dogs one hour after dosing, (0.5 ml from the jugular vein) for a time 0 sample. Dose the dogs with olive oil (Sigma Catalog#: O-1514, 5 ml/kg) immediately after collection of the time 0 sample. Collect samples into an EDTA tube on ice at 1.5, 2, 3, 5, 7, and 9 hrs post compound/vehicle dosing. Centrifuge the samples at […] for 15 min and analyze (Roche Cat no. 1877771) for plasma total triglyceride using a Roche Hitachi 917. For plasma TAG 18.1—18.1—18.1 measurement, extract the samples and perform LC/MS/MS analysis similarly to that described above in MOGAT-2 Cell Assay using 10 μL of plasma/.
The analyte is the [M+NH4]+ ion of TAG 18:1 18:1 18:1, which has a mass of 902.8 m/z; the internal standard is D5 TAG 16:0 16:0 16:0, which has a mass of 829.8 m/z. Report the ratio of the 603.5 m/z daughter ion of 902.8 m/z (TAG 18:1 18:1 18:1) and the 556.5 m/z daughter ion of 829.8 m/z (D5 TAG 16:0 16:0 16:0 internal standard) changes in TAG 18:1 18:1 18:1 relative amount. Calculate the net plasma TAG AUC from total TAG AUC minus baseline TAG AUC using Graphpad Prism4: (Net AUCTAG=AUCTAG post oil bolus−AUCTAG at 0 hour). The percent inhibition of plasma triglyceride is calculated as follows: the (oil bolus group mean of net TAG AUC−oil bolus group mean of net TAG AUC with compound treatment/oil bolus group mean of net TAG AUC)*100. The final statistic analysis uses Dunnett's method of One way Anova for comparison with the control. All Net TAG AUC values are transformed to ranked averaged AUC for comparison to limit the variability within the studies.

human MOGAT-2 [2] = target: T1, human MOGAT-2 (Homo sapiens, UniProt Q3SYC2); assay: MOGAT-2 Inhibitory Assay (in vitro, SF9 cell lysate, 14C-oleoyl-CoA, Microscint extraction); type: biochemical; set-up: made in house; host or cells: insect SF9 cells (crude lysate supernatant); conditions: SF9 cell extract expressing human MOGAT-2, 90 min, room temperature
T1 sequence (Q3SYC2 whole entry): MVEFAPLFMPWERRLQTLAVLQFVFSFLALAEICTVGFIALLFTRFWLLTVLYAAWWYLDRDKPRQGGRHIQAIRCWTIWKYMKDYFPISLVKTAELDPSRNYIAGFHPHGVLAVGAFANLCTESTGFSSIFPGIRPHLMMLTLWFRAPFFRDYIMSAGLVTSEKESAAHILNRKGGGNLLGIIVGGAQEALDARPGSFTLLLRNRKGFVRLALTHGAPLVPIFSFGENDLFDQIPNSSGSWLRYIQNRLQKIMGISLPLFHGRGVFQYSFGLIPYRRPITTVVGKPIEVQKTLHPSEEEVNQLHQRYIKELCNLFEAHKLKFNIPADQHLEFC
Method: The in vitro inhibitory activity of compounds against human MOGAT-2 is evaluated in this assay. MOGAT-2 transfers an oleoyl group to monooleoyl-glycerol (“MAG”) from oleoyl-CoA to form dioleoyl-glycerol (“DAG”) in the intestinal triglyceride resynthesis pathway. The assay takes advantage of Microscint Extraction, which extracts hydrophobic molecules selectively over hydrophilic ones to separate the ^14C-oleoyl-CoA from ^14C-DAG.
Genetically engineered insect SF9 cells express human MOGAT-2. Prepare the cell lysate in 20 mM of NaCl with protease inhibitor (Roche Cat #11873580001). Homogenize the SF9 cells expressing human MOGAT-2 at 15,000 rpm for 20×2 seconds (PT-3100 Polytrone). Centrifuge the homogenate at 1000 g for 10 minutes at 4° C. Collect the supernatant into a separate tube for protein quantification and activity testing. Purify the glycerol monooleate substrate (Spectrum Chemical, CAS#25496-72-4) chromatographically. Prepare the monoacylglyerol (MAG) substrate in phospholipid vescicles (dioleoyl phosphatidylcholine “DOPC”). Prepare the MAG/DOPC vesicles at 20 mM concentration of total lipids (MAG and DOPC). Prepare different molar ratios of MAG to total lipids for either compound screening (8.9%) or compound kinetic studies (2.6-40%). Mix the appropriate amount of purified MAG and DOPC (Avanti Polar Lipids #850375C) in chloroform in a glass tube. […]

human MOGAT-2 [3] = target: T1, human MOGAT-2; assay: Inhibitory Activity in MOGAT-2 Cell Assay (Caco-2 cells stably transfected with human MOGAT-2, HDG substrate, LC-MS); type: cell-based; set-up: expressed in transfected cells; conditions: Caco-2 cells expressing human MOGAT-2, HDG/DOPC, 4 hours; read-out: IC50 nM (Std Dev., n*)
Method: The inhibitory activity of compounds against human MOGAT-2 in a cell environment is evaluated in this assay. Caco-2 is a human colon carcinoma cell line and is often used as a model for intestinal epithelial cells. […] A MAG analogue, 2-O-Hexadecylglycerol (HDG), is utilized to detect cellular MOGAT-2 activity, because HDG is not hydrolyzed and the resulting product is readily monitored by mass spectrometry. The substrate is delivered to cells using as a mixture with DOPC in the form of sonicated vesicles.
Seed the Caco2 cells onto 100 mm dishes to be 80% confluent after 24 hours in complete media (3/1 DMEM: F12+10% FBS+20 mM HEPES+gentamicin). Transfect the cells with hMOGAT-2 plasmid (MOGAT-2-pcDNA3.1-Hygro) using Lipofectamine 2000 (Invitrogen). After a 6 hour exposure to the transfection mixture, wash the cells three times in PBS and then add media. Incubate the cells for an additional 18 hours incubation, trypsinize the cells and serially dilute them into 100 mm dishes. Add complete media+400 μg/ml hygromycin and incubate until clones appear. Isolate and transfer the clones into 24 well dishes and grow to confluency. Prepare the RNAs from these clones using a Qiagen RNAeasy kit. Perform Taqman analysis using an ABI inventoried assay (HS00228262) on a 7900 Sequence Detection System (ABI). Analyze the lysates from these clones by Western blot analysis using a goat polyclonal antibody (Santa Cruz, SC-32392 to confirm human MOGAT-2 expression of a 38 kD protein corresponding to MOGAT-2.
Mix 2-O-hexadecylglycerol (“HDG”, Biosynth Chemistry & Biology, #H-1806, 562.7 μl of 20 mg/ml) and DOPC (14.3 ml of 20 mg/ml) in chloroform in a glass tube; dry first under N2 gas; and then under reduced pressure for additional 30 minutes. Add 20 ml of buffer (150 mM Tris-Cl pH 7.4, 250 mM sucrose, 1 mM EDTA) to the dried HDG/DOPC mixture while sonicating until the solution becomes clear. Plate the Caco2 cells into a poly-D-lysine coated 96-well plate (the “Cell Plate”) at 37° C., 5% CO2 overnight. Remove the growth media and pretreat the cells with the test compound in DMEMF12 (3:1) media (GIBCO 93-0152DK) containing 2% BSA (Sigma) for 30 minutes. Treat the cells with one test compound in 2% BSA DMEMF12 (3:1) media containing 40 μM of oleic acid and 800 μM of 8.9:91.9 (molar ratio) HDG/DOPC for 4 hours. Trypsinize the cells with 50 μl of trypsin solution and add 50 μl of PBS. Immediately freeze the cells on dry ice and store at −20° C. for LC-MS analysis. Extract the cells with chloroform/methanol as follows: transfer the cells to a 2 ml plate; wash the cell plate with 200 μL methanol and then transfer the methanol wash to the 2 ml plate; wash the cell plate again with 200 μL PBS and transfer the PBS wash to the 2 ml plate. Add chloroform (400 μL) with internal standard (19.52 ng/mL) DAG (15:0, 15:0 (Sigma)), D5-TAG (39.03 ng/mL) CDN (16, 16, 16) to the 2 mL Plate. Turn the sealed 2 mL Plate up and down (10×), then vortex and spin. Remove 400 μL of the lower layer from the 2 mL plate and add to the wells of another plate the “Final Plate”. Add CHCl3:MeOH (400 μL 2:1) to the 2 mL Plate. Again turn the sealed 2 mL Plate up and down (10×), vortex and spin. Remove 220 μL of the lower layer from the 2 mL Plate and add to the Final Plate. Dry the Final Plate and reconstitute with […] of IPA. Seal the Final Plate and shake for 5 min. […]

SMILES | reduction of 18:1 TAG (plasma TAG 18:1 18:1 18:1 net AUC) ([1]; 30 mg/kg) | reduction of TAG secretion (percent inhibition of plasma total triglyceride net AUC) ([1]; 30 mg/kg, total TAG) | reduction of 18:1 TAG (plasma TAG 18:1 18:1 18:1 net AUC) ([1]; 60 mg/kg) | reduction of TAG secretion/absorption (percent inhibition of plasma total triglyceride net AUC) ([1]; 60 mg/kg, total TAG) | IC50 (human MOGAT-2 [2]) | IC50 (human MOGAT-2 [3])
COC[C@H](CNCc1ccc([C@H](NS(C)(=O)=O)C(F)(F)F)cc1)Oc1ccc(F)cn1.Cl [Example 1, N-[(1S)-2,2,2-Trifluoro-1-{4-[({(2S)-2-[(5-fluoropyridin-2-yl)oxy]-3-methoxypropyl}amino)methyl]phenyl}ethyl]methanesulfonamide hydrochloride] | 64% | 61% | 76% | 77% | 0.002 µM | 30.6 nM
C[C@H](CNCc1ccc([C@H](NS(C)(=O)=O)C(F)(F)F)cc1)Oc1ccccn1 [Example 3, N-{(1S)-2,2,2-Trifluoro-1-[4-({[(2R)-2-(pyridin-2-yloxy)propyl]amino}-methyl)phenyl]ethyl}-methanesulfonamide hydrochloride] |  |  |  |  |  | 14.4 nM
COC[C@H](CNCc1ccc([C@H](NS(C)(=O)=O)C(F)(F)F)cc1)Oc1ccccn1 [Example 5, N-{(1S)-2,2,2-Trifluoro-1-[4-({[(2S)-3-methoxy-2-(pyridin-2-yloxy)propyl]amino}-methyl)phenyl]ethyl}-methanesulfonamide hydrochloride (1:1)] |  |  |  |  |  | 44.6 nM
CS(=O)(=O)N[C@@H](c1ccc(CNCCOc2ccc(F)cn2)cc1)C(F)(F)F [Example 17, N-[(1S)-2,2,2-Trifluoro-1-{4-[({2-[(5-fluoropyridin-2-yl)oxy]ethyl}amino)-methyl]phenyl}ethyl]-methanesulfonamide hydrochloride] |  |  |  |  |  | 45.5 nM
C[C@H](CNCc1ccc([C@H](NS(C)(=O)=O)C(F)(F)F)cc1)Oc1ccc(F)cn1.Cl [Example 36, N-[(1S)-2,2,2-Trifluoro-1-{4-[({(2r)-2-[(5-fluoropyridin-2-yl)oxy]propyl}amino)methyl]phenyl}ethyl]-methanesulfonamide hydrochloride] |  |  | 43% | 38% |  | 36.1 nM
